Source: article PMC11961260 (Royal Society Open Science, 2025)
Peptide text beside a SMILES is read from it.

Key:
SARS-CoV-2 main protease = details: read-out: IC50 value of the positive control; cited from earlier work
[1] = target: T1, SARS-CoV-2 main protease (M^pro) (Severe acute respiratory syndrome coronavirus 2, UniProt P0DTD1); assay: SARS-CoV-2 main protease inhibitor screening assay (Cayman Chemicals, Catalogue Number 701960); assay type: biochemical; details: for response in SARS-CoV-2 M^pro inhibition screening (in words: active/inactive) / % inhibition of SARS-CoV-2 M^pro: dendron 20 μM; for % inhibition of SARS-CoV-2 M^pro: 30 min pre-incubation, 2 h with substrate, room temperature, three wells
T1 construct: purchased Cayman Chemicals 701960

[2] = no reference given; cited from earlier work
[3] = fluorescence ex 340 nm/em 490 nm

## CC(C)C[C@H](NC(=O)OCc1ccccc1)C(=O)N[C@@H](CC1CCNC1=O)C(O)S(=O)(=O)O (stereo partly shown) [GC376]
SARS-CoV-2 main protease
  IC50: 0.15 ± 0.03 µM

## O=C(O)CC[C@H](NC(=O)[C@H](Cc1c[nH]c2ccccc12)NC(=O)CC[C@H](NC(=O)CNC(=O)CCN1c2ccccc2Sc2ccccc21)C(=O)N[C@@H](Cc1c[nH]c2ccccc12)C(=O)N[C@@H](CCC(=O)O)C(=O)O)C(=O)O [compound 114, Ptz-GE(WE-COOH)WE-COOH] (HELM PEPTIDE1{[O=C(CCN1c2ccccc2Sc2ccccc21)[*:2]].G.E.W.E}|PEPTIDE2{W.E}$PEPTIDE1,PEPTIDE2,3:R3-1:R1$$$V2.0)
[1]
  response in SARS-CoV-2 M^pro inhibition screening (in words: active/inactive): active
[1]; [3]
  % inhibition of SARS-CoV-2 M^pro: 33%
[1]; figure 3B, fluorescence ex 340 nm/em 490 nm
  IC50: 65 µM

## N[C@@H](CCC(=O)O)C(=O)O [glutamic acid]
[2]
  pKa1(COOH): 2.19
  pKa2(side chain COOH): 4.25

## Boc-E(WE-COOH)WE-COOH [C91]
[1]
  response in SARS-CoV-2 M^pro inhibition screening (in words: active/inactive): non-responsiveness
[1]; [3]
  % inhibition of SARS-CoV-2 M^pro: < 25%

## Ptz-GE(FE-COOH)FE-COOH [compound 112]
[1]
  response in SARS-CoV-2 M^pro inhibition screening (in words: active/inactive): active
[1]; [3]
  % inhibition of SARS-CoV-2 M^pro: 25%

## Ptz-GE(HE-COOH)HE-COOH [169A]
[1]
  response in SARS-CoV-2 M^pro inhibition screening (in words: active/inactive): inactive
[1]; [3]
  % inhibition of SARS-CoV-2 M^pro: < 25%

## Ptz-GE(YE-COOH)YE-COOH [compound 113]
[1]
  response in SARS-CoV-2 M^pro inhibition screening (in words: active/inactive): inactive
[1]; [3]
  % inhibition of SARS-CoV-2 M^pro: < 25%

## Ptz-GE(wE-COOH)wE-COOH [169C]
[1]
  response in SARS-CoV-2 M^pro inhibition screening (in words: active/inactive): active
[1]; [3]
  % inhibition of SARS-CoV-2 M^pro: 31%
